A short description of data set [1]: Solubility in water and formulation vehicles.
The nature of the next data set: physchem. The note with it: Table 4, (batch size 95, 50, 120, 54, 18.5, 550 g).
A short description of data set [2]: Hygroscopicity by dynamic vapor sorption. Type of data set: physicochemical. As to conditions: 0% to 90% RH, monohydrate. The protocol:
The hydroscopicity of the anhydrous Form V and the hydrated forms was determined using dyanamic vapor sorption, including the plot for Form I shown in FIG. 2. This was performed under the following conditions. RH was set at 0%, 30%, 52.5%, 75% and 90%, with the sample exposed for 3 hours at each RH for two full cycles.

A short description of data set [3]: Solid-state stability on exposure to light, humidity and heat (XRD and HPLC; water loss). Type of data set: physicochemical.
The nature of data set [4]: Conversion of crystal form on treatment with water. Type of data set: physicochemical. As to conditions: for form conversion in heated water: water at 90° C. or 95° C. The protocol:
Forms II, III, IV and Form VI can all be transformed into Form I by treatment with water, e.g. by heating in water. The water may be at room temperature. The water may be heated to at least about 90° C., and as high as at least about 95° C.
Form V is the anhydrous form, producing substantially Pattern E in FIGS. 1 and 8 when scanned by XRD, and has the highest transition temperature of all the polymorphic forms, i.e., about 148° C. It is also readily converted to Form I by treatment with heated water. The water is heated to at least about 90° C., and more preferably is heated to at least about 95° C. […] This hydrated form is different from either Form I or V, as shown by the XRD scan in FIG. 4.
FIG. 3. This is a differential scanning calorimeter (DSC) plot and a theromogravimetric analysis (TGA) plot of Form V after suspension in water for two months and ten days at room temperature.

The mark [5] stands for this setting: Table 4, (batch size 95, 50, 120, 54, 18.5, 550 g), listed as Pattern D.

≈ marks a conversion by molar mass, not a printed value. Entries after “also recorded” stand apart in the source; their conditions may differ.

The text below walks through data of patent publication US8445496B2, “Crystalline forms of 4-[(2,4-dichloro-5-methoxyphenyl)amino]-6-methoxy-7-[3-(4-methyl-1-piperazinyl)propoxy]-3-quinolinecarbonitrile and methods of preparing the same” (Wyeth LLC, priority 2005, dated 2013).

In the case of `COc1cc(Nc2c(C#N)cnc3cc(OCCCN4CCN(C)CC4)c(OC)cc23)c(Cl)cc1Cl` [4-[(2,4-dichloro-5-methoxyphenyl)amino]-6-methoxy-7-[3-(4-methyl-1-piperazinyl)propoxy]-3-quinolinecarbonitrile], the “solubility enhancement with about 2% Tween80” value in data set [1] (about 2% Tween80) was “about 100 fold”. Further, the solubility was 100 to 400 µg/mL (≈ 189 to 754 µM) in data set [1] (about 2% Tween80, aqueous with cosolvent or surfactant or cyclodextrin, solubility with addition of about 2% Tween80, about 2% Tween80 (detergent)); 3000 to 4000 µg/mL in data set [1] (aqueous with cosolvent or surfactant or cyclodextrin, solubility with addition of about 0.06% acetic acid (in-situ acetate salt vehicle), about 2% Tween80 plus about 0.06% acetic acid); 1.8 µg/mL (≈ 3.39 µM) in data set [1] (de-ionized water, pH 7.2, water, solubility in de-ionized water, partially ionized, resulting pH 7.2); ~0.06 µg/mL (≈ 0.113 µM) in data set [1] (pH 8, aqueous buffer, intrinsic (neutral form) solubility, pH 8.0); > 200000 µg/mL in data set [1] (stomach acid, simulated gastric fluid, solubility in stomach acid). In addition, the “solubility enhancement with about 0.06% acetic acid” value in data set [1] (in-situ acetate salt vehicle) is reported as ~1000 fold.

In the case of `COc1cc(Nc2c(C#N)cnc3cc(OCCCN4CCN(C)CC4)c(OC)cc23)c(Cl)cc1Cl.O` [Form I, 4-[(2,4-dichloro-5-methoxyphenyl)amino]-6-methoxy-7-[3-(4-methyl-1-piperazinyl)propoxy]-3-quinolinecarbonitrile monohydrate], the solubility in the data set “physchem” (aqueous with cosolvent or surfactant or cyclodextrin, 2% Tween80/0.5% MC 0.06% acetic acid) worked out at 4000 µg/mL; in “physchem” (pH 7.2, water, Water), 1.8 µg/mL. In addition, the hygroscopicity entry in data set [2] is given as “not hygroscopic; also recorded: non-hydroscopic”. Also, the “Solubility, 2% Tween80/0.5% MC 0.06% acetic acid” value in data set [1] (Table 4, (batch size 95, 50, 120, 54, 18.5, 550 g), listed as Pattern A, monohydrate) was 4.25 (pH 5.7) mg/mL. In data set [3] (0% relative humidity for 10 days), the “loss of water at 0% relative humidity” value is “does not lose water”. In data set [3] (75% humidity at 40° C. for 3 months), the “stability to humidity (XRD and HPLC)” value was “substantially pure and physically unchanged”. The “stability to heat (XRD and HPLC)” value in data set [3] (90° C. for 2 weeks) is “substantially pure and physically unchanged”. Also, the “stability to light (XRD and HPLC)” value in data set [3] (510 foot-candles (~5490 lux) light for two weeks) was “substantially pure and physically unchanged”. In addition, in data set [3] (heated to 90° C. for over 100 hours), the “loss of water on heating” value was “does not lose water”.

For the molecule `COc1cc(Nc2c(C#N)cnc3cc(OCCCN4CCN(C)CC4)c(OC)cc23)c(Cl)cc1Cl` [Form II, 4-[(2,4-dichloro-5-methoxyphenyl)amino]-6-methoxy-7-[3-(4-methyl-1-piperazinyl)propoxy]-3-quinolinecarbonitrile], the “form conversion in heated water” value in data set [4] (listed as B) was “Converts to “I” in 95 °C”.

With `CC(C)O.COc1cc(Nc2c(C#N)cnc3cc(OCCCN4CCN(C)CC4)c(OC)cc23)c(Cl)cc1Cl` [Form III, 4-[(2,4-dichloro-5-methoxyphenyl)amino]-6-methoxy-7-[3-(4-methyl-1-piperazinyl)propoxy]-3-quinolinecarbonitrile monoisopropyl alcoholate], the “form conversion in heated water” value in data set [4] was “Converts to “I” in 95 °C”.

As to `COc1cc(Nc2c(C#N)cnc3cc(OCCCN4CCN(C)CC4)c(OC)cc23)c(Cl)cc1Cl` [Form IV, 4-[(2,4-dichloro-5-methoxyphenyl)amino]-6-methoxy-7-[3-(4-methyl-1-piperazinyl)propoxy]-3-quinolinecarbonitrile], in data set [4] (listed as D), the “form conversion in heated water” value is “Converts to “I” in 90 °C”. Besides, the solubility in data set [1] (2% Tween80/0.5% MC 0.06% acetic acid, aqueous with cosolvent or surfactant or cyclodextrin, Solubility, Table 4, (batch size 95, 50, 120, 54, 18.5, 550 g)) was found to be 3500 µg/mL (≈ 6600 µM); in data set [1] (2% Tween 80/03% MC, aqueous with cosolvent or surfactant or cyclodextrin, Solubility, Table 4, (batch size 95, 50, 120, 54, 18.5, 550 g)), 70 µg/mL (≈ 132 µM). Further, the “Solubility, 2% Tween80/0.5% MC 0.06% acetic acid” value in data set [1] (setting [5]) is given as 2.68 (pH 5.2) mg/mL. Further, the “Solubility, 2% Tween 80/03% MC” value in data set [1] (setting [5]) is listed as 0.06 (pH 7.8) mg/mL.

Turning to `COc1cc(Nc2c(C#N)cnc3cc(OCCCN4CCN(C)CC4)c(OC)cc23)c(Cl)cc1Cl` [Form V, 4-[(2,4-dichloro-5-methoxyphenyl)amino]-6-methoxy-7-[3-(4-methyl-1-piperazinyl)propoxy]-3-quinolinecarbonitrile], the “form change in water at room temperature” value in data set [4] (suspended in water at room temperature, 2 months (two months and ten days), DSC, TGA, XRD) is on record as “converted into a hydrated Form II; also recorded: hydrated to a metastable hydrate crystal form”. For the same molecule, the “form conversion in heated water” value in data set [4] is “Converts to “I” in 95 °C”.

Regarding `CO.COc1cc(Nc2c(C#N)cnc3cc(OCCCN4CCN(C)CC4)c(OC)cc23)c(Cl)cc1Cl` [Form VI, 4-[(2,4-dichloro-5-methoxyphenyl)amino]-6-methoxy-7-[3-(4-methyl-1-piperazinyl)propoxy]-3-quinolinecarbonitrile methanolate], the “form conversion in heated water” value in data set [4] is “Converts to “I” in 95 °C”.
